# Measurements taken from patent EP0721336B1, “BENZAZOLE COMPOUNDS FOR USE IN THERAPY” (CANCER RESEARCH CAMPAIGN TECHNOLOGY LIMITED, priority 1993, dated 1995).
# Structures can show the parent of a compound that is named as a salt. Where two headings read alike, the source gives them in different places. Marks after values point to notes of the source that are not given here.
# Tests used:
# [1] = test system: MCF-7 mammary carcinoma cells; experiment: In vitro cytotoxicity assay (cell growth, propidium iodide fluorescence); format: cell-based, human
# Description: (§1) This is illustrated in Tables 1 and 2 at the end of the present description which show in vitro test results obtained in various sets of experiments for the cytotoxic activity of this compound CJM 126 against a range of human tumour cell lines, expressed in terms of IC50 values (concentration or dosage required to reduce cell growth or proliferation by 50%) calculated from dose-effect curves plotted for cultures of the cells in question.
# (§2) In carrying out the above in vitro studies, the method used for conducting the cytotoxicity assays was generally substantially as follows: • Cells were maintained in a continuous logarithmic culture in Dulbecco's medium supplemented with 10% fetal calf serum and penicillin (100 IU/ml) and streptomycin (100 µg/ml). The cells were mildly trypsinized for passage and for use in assays. On day zero, 100µl of trypsinized tumour cells (1 x 10^4/ml) were plated in the wells of 96-well flat-bottom microtiter plates. […] On day two 50µl of the highest drug concentration was added to the wells of column 12 and from there serially diluted 3-fold to column 1 by serial transfer of 50µl using an 8-channel micropipette. The final volume of column 1 was adjusted to 100µl. No additions were made to the wells of rows A and B, which served as controls. The plates were further incubated for 5 days at 37°C and 5% CO2 in air. Each compound was tested in duplicate. • On day 7 the test was terminated by the addition of 100µl saline containing 0.002% w/v propidium iodide (Sigma), 0.3% drawing ink (Staedtler "Marsmatic 745" - Trade Mark) and 0.5% Triton X-100. The plates were kept at 4°C overnight before reading on an inverted microscope equipped with an automated scanning stage. Fluorescence intensity was measured in arbitrary units by a photomultiplier. An HP-87 computer controlled the movement of the stage and also collected and processed the data from the multiplier. • For each compound tested a dose-response curve was obtained and the IC50 value (the drug concentration at 50% inhibition of cell growth) was calculated.
# [2] = test system: MDA 468 mammary (ER-/EGFR+); experiment: In vitro cytotoxicity assay; format: cell-based, human
# Description: as §1, §2
# [3] = test system: BO (T61) human mammary carcinomas; experiment: In vivo activity against implanted BO tumour; parameters: species or system NMRI-nu/nu female mice
# MCF 7-ADR mammary = experiment: In vitro cytotoxicity and growth stimulation assay; format: cell-based, human; settings: for IC50: Homo sapiens, NCI/ADR-RES
# Description: as §1, §2
# MCF-7 mammary carcinoma = experiment: In vivo activity against MCF-7 tumour implanted s.c.; settings: i.v., 10 mg/kg/day, qd 6, 13, 20
# [4] = Homo sapiens, MCF7, MCF 7-wt cells, values in text, read-out: IC50
# [5] = Homo sapiens, MDA 468 cells, values in text, read-out: IC50
# [6] = Homo sapiens, MCF-wt, column B, read-out: MCF-wt B IC50 at >micromolar concentrations
# [7] = Homo sapiens, MCF-wt, column A, read-out: MCF-wt A IC50 at sub-micromolar concentrations
# [8] = Homo sapiens, column B, read-out: MDA 468 B IC50 at >micromolar concentrations
# [9] = Homo sapiens, column A, read-out: MDA 468 A IC50 at sub-micromolar concentrations
# [10] = column B, read-out: MCF7-Adr B IC50 at >micromolar concentrations
structure (smiles),measurement,setting,value
"Cc1ccc2nc(-c3ccc(N)cc3)sc2c1 [2-(4-aminophenyl)-6-methylbenzothiazole, reference compound]",IC50,[1]; [4],0.38 µM
same,IC50,[2]; [5],0.4 µM
"Nc1cccc(-c2nc3ccccc3s2)c1 [CJM 129, 2-(3-Aminophenyl)benzothiazole]",IC50,[1]; [6],> 10 µM
same,BWC,"[3]; i.p., 2 mg/kg/day, qd 27,34,41",2
same,Relative tumour volume (T/C%),"[3]; i.p., 2 mg/kg/day, qd 27,34,41, d33",127%
same,Relative tumour volume (T/C%),"[3]; i.p., 2 mg/kg/day, qd 27,34,41, d41",91%
same,Relative tumour volume (T/C%),"[3]; i.p., 2 mg/kg/day, qd 27,34,41, d47",94%
same,Relative tumour volume (T/C%),"[3]; i.p., 2 mg/kg/day, qd 27,34,41, d55",95%
same,Relative tumour volume (T/C%),"[3]; i.p., 2 mg/kg/day, qd 27,34,41, d61",78%
same,BWC,"[3]; i.p., 20 mg/kg/day, qd 27,34,41",-3
same,Relative tumour volume (T/C%),"[3]; i.p., 20 mg/kg/day, qd 27,34,41, d33",88%
same,Relative tumour volume (T/C%),"[3]; i.p., 20 mg/kg/day, qd 27,34,41, d41",77%
same,Relative tumour volume (T/C%),"[3]; i.p., 20 mg/kg/day, qd 27,34,41, d47",54%
same,Relative tumour volume (T/C%),"[3]; i.p., 20 mg/kg/day, qd 27,34,41, d55",73%
same,Relative tumour volume (T/C%),"[3]; i.p., 20 mg/kg/day, qd 27,34,41, d61",48* %
same,BWC,"[3]; i.p., 200 mg/kg/day, qd 27,34,41",-6
same,Relative tumour volume (T/C%),"[3]; i.p., 200 mg/kg/day, qd 27,34,41, d33",78* %
same,Relative tumour volume (T/C%),"[3]; i.p., 200 mg/kg/day, qd 27,34,41, d41",45* %
same,Relative tumour volume (T/C%),"[3]; i.p., 200 mg/kg/day, qd 27,34,41, d47",32* %
same,Relative tumour volume (T/C%),"[3]; i.p., 200 mg/kg/day, qd 27,34,41, d55",33* %
same,Relative tumour volume (T/C%),"[3]; i.p., 200 mg/kg/day, qd 27,34,41, d61",36* %
same,MCF7-Adr A IC50 at sub-micromolar concentrations,MCF 7-ADR mammary; column A,Inactive
same,MCF7-Adr B IC50 at >micromolar concentrations,MCF 7-ADR mammary; column B,Inactive
"COc1ccc2nc(-c3ccc(N)cc3)sc2c1 [Compound 93002, 2-(4-Aminophenyl)-6-methoxybenzothiazole]",IC50,[1]; [7],0.38 µM
same,IC50,[2]; [8],7.64 µM
"CCS(=O)(=O)O.Nc1ccc(-c2nc3ccccc3s2)cc1 [Compound 93003, Ethanesulphonic acid salt of 2-(4-aminophenyl)benzothiazole]",IC50,"[1]; MCF-wt, column A, read-out: MCF-wt A IC50 at sub-micromolar concentrations",0.0046 µM
same,IC50,"[2]; column A, read-out: MDA 468 A IC50 at sub-micromolar concentrations",0.0024 µM
same,MCF7-Adr C Concentrations which stimulate cell growth,MCF 7-ADR mammary; column C,"3,10 µM"
"Nc1ccc(-c2nc3ccccc3s2)c(Cl)c1 [Compound 93004, 2-(4-Amino-2-Chlorophenyl)benzothiazole]",IC50,[1]; [7],0.142 µM
same,IC50,[2]; [9],0.003 µM
"COc1cccc2sc(-c3ccc(N)cc3Cl)nc12 [Compound 93005, 2-(4-amino-2-chlorophenyl)-4-methoxybenzothiazole]",IC50,[1]; [7],0.063 µM
same,IC50,[2]; [9],0.0022 µM
same,IC50,"MCF 7-ADR mammary; column A, read-out: MCF7-Adr A IC50 at sub-micromolar concentrations",0.0465 µM
"c1ccc2sc(-c3ccc(N4CCCC4)cc3)nc2c1 [Compound 93006, 2-[4-(Pyrrolidin-1-yl)phenyl]benzothiazole]",IC50,[1]; [7],0.867 µM
"c1ccc2sc(-c3ccc(N4CCCCC4)cc3)nc2c1 [Compound 93007, 2-[4-(Piperidin-1-yl)phenyl]benzothiazole]",IC50,[1]; [6],2.77 µM
"c1ccc2sc(-c3ccc(N4CCOCC4)cc3)nc2c1 [Compound 93008, 2-[4-(Morpholin-4-yl)phenyl]benzothiazole]",IC50,[1]; [7],0.16 µM
"O=P1(N(CCCl)CCCl)NCCCO1 (centres unmarked) [Cyclophosphamide, reference compound]",BWC,"[3]; i.p., 150 mg/kg/day, qd 27",-4
same,Relative tumour volume (T/C%),"[3]; i.p., 150 mg/kg/day, qd 27, d33",117%
same,Relative tumour volume (T/C%),"[3]; i.p., 150 mg/kg/day, qd 27, d41",27* %
same,Relative tumour volume (T/C%),"[3]; i.p., 150 mg/kg/day, qd 27, d47",29* %
same,Relative tumour volume (T/C%),"[3]; i.p., 150 mg/kg/day, qd 27, d55",19* %
same,Relative tumour volume (T/C%),"[3]; i.p., 150 mg/kg/day, qd 27, d61",5* %
"Nc1ccc(-c2nc3ccccc3o2)cc1 [DF140, 2-(4-Aminophenyl)benzoxazole]",IC50,[1]; [7],0.11 µM
same,IC50,[2]; [8],> 10 µM
"Nc1ccc(-c2nc3cc(OCc4ccccc4)ccc3s2)c(Cl)c1 [DF161, 2-(4-Amino-2-chlorophenyl)-5-benzyloxybenzothiazole]",IC50,[1]; [7],0.001 µM
same,IC50,[1]; [6],55.9 µM
same,IC50,[2]; [9],0.0007 µM
same,IC50,[2]; [8],2.84 µM
same,IC50,MCF 7-ADR mammary; [10],84.8 µM
"COc1cc(OC)c2sc(-c3ccc(N)cc3)nc2c1 [DF162D, 2-(4-Aminophenyl)-5,7-dimethoxybenzothiazole]",IC50,[1]; [6],19.3 µM
same,IC50,[2]; [9],0.0035 µM
same,IC50,MCF 7-ADR mammary; [10],20.9 µM
"Nc1ccc(-c2nc3cc(O)cc(O)c3s2)cc1 [DF162Eb, 2-(4-Aminophenyl)-5,7-dihydroxybenzothiazole]",IC50,[1]; [6],49.6 µM
same,IC50,[2]; [8],16.3 µM
same,IC50,MCF 7-ADR mammary; [10],13.9 µM
"Nc1ccc(-c2nc3ccccc3s2)cc1 [Example IC, 2-(4-Aminophenyl)benzothiazole methanesulphonic acid salt]",IC50,[1]; [4],0.0007 µM
same,IC50,[2]; [5],0.0024 µM
"Nc1ccc(OS(=O)(=O)C(F)(F)F)c(-c2nc3ccccc3s2)c1 [Example XIV, 2-(3-Amino-6-trifluoromethylsulphonyloxyphenyl)benzothiazole]",IC50,"[1]; Homo sapiens, MCF7, MCF-7 (wild type) cells, read-out: IC50",0.05 µM
"O=C1c2c(O)ccc(O)c2C(=O)c2c(NCCNCCO)ccc(NCCNCCO)c21 [Mitoxantrone, reference compound]",Relative tumour volume (T/C%),MCF-7 mammary carcinoma; d9,52%
same,Relative tumour volume (T/C%),MCF-7 mammary carcinoma; d13,32* %
same,Relative tumour volume (T/C%),MCF-7 mammary carcinoma; d20,38* %
same,Relative tumour volume (T/C%),MCF-7 mammary carcinoma; d27,26* %
same,Relative tumour volume (T/C%),MCF-7 mammary carcinoma; d35,29* %
same,Relative tumour volume (T/C%),MCF-7 mammary carcinoma; d43,29* %
same,BWC (%),MCF-7 mammary carcinoma; relative to saline treated animals,-10%
same,BWC,"[3]; i.v., 10 mg/kg/day, qd 27",-5
same,Relative tumour volume (T/C%),"[3]; i.v., 10 mg/kg/day, qd 27, d33",58* %
same,Relative tumour volume (T/C%),"[3]; i.v., 10 mg/kg/day, qd 27, d41",26* %
same,Relative tumour volume (T/C%),"[3]; i.v., 10 mg/kg/day, qd 27, d47",6* %
same,Relative tumour volume (T/C%),"[3]; i.v., 10 mg/kg/day, qd 27, d55",7* %
same,Relative tumour volume (T/C%),"[3]; i.v., 10 mg/kg/day, qd 27, d61",4* %
"CC[C@]1(O)C[C@H]2CN(CCc3c([nH]c4ccccc34)[C@@](C(=O)OC)(c3cc4c(cc3OC)N(C=O)[C@H]3[C@@](O)(C(=O)OC)[C@H](OC(C)=O)[C@]5(CC)C=CCN6CC[C@]43[C@@H]65)C2)C1 [Vincristine, reference compound]",BWC,"[3]; i.p., 1 mg/kg/day, qd 27",-6
same,Relative tumour volume (T/C%),"[3]; i.p., 1 mg/kg/day, qd 27, d33",142%
same,Relative tumour volume (T/C%),"[3]; i.p., 1 mg/kg/day, qd 27, d41",62%
same,Relative tumour volume (T/C%),"[3]; i.p., 1 mg/kg/day, qd 27, d47",61%
same,Relative tumour volume (T/C%),"[3]; i.p., 1 mg/kg/day, qd 27, d55",61%
same,Relative tumour volume (T/C%),"[3]; i.p., 1 mg/kg/day, qd 27, d61",57%
